In patent publication EP1658050B1, “SELF-NANOEMULSIFYING OILY FORMULATION FOR THE ADMINISTRATION OF POORLY WATER-SOLUBLE DRUGS” (Novagali Pharma S.A., priority 2003, dated 2005):

Legend:
[1] = humans; after oral paclitaxel administration; cited from earlier work
[2] = Pharmacokinetic study of oral paclitaxel emulsions after cyclosporin A oral pretreatment (paclitaxel plasma levels by HPLC-UV); assay type: in vivo, FVB Wild-type mice; conditions: intravenous 10 mg/kg paclitaxel; with versus without 10 mg/kg oral CsA; wild-type mice

increase of intravenously administered paclitaxel AUC by oral pre-treatment with cyclosporin A [2]: 2.35 fold
Structure (SMILES): CC(=O)O[C@H]1C(=O)[C@@]2(C)[C@H]([C@H](OC(=O)c3ccccc3)[C@]3(O)C[C@H](OC(=O)[C@H](O)[C@@H](NC(=O)c4ccccc4)c4ccccc4)C(C)=C1C3(C)C)[C@]1(OC(C)=O)CO[C@@H]1C[C@@H]2O [paclitaxel, Paclitaxel]
systemic bioavailability [1]: less than 6%
